In patent US11312695B2, “Nutrients to enhance load-induced muscle hypertrophy” (The Regents of the University of California, priority 2020, dated 2022):

Target: T1, purified human SIRT1 (Homo sapiens, UniProt Q96EB6)
T1 sequence (Q96EB6 1-747): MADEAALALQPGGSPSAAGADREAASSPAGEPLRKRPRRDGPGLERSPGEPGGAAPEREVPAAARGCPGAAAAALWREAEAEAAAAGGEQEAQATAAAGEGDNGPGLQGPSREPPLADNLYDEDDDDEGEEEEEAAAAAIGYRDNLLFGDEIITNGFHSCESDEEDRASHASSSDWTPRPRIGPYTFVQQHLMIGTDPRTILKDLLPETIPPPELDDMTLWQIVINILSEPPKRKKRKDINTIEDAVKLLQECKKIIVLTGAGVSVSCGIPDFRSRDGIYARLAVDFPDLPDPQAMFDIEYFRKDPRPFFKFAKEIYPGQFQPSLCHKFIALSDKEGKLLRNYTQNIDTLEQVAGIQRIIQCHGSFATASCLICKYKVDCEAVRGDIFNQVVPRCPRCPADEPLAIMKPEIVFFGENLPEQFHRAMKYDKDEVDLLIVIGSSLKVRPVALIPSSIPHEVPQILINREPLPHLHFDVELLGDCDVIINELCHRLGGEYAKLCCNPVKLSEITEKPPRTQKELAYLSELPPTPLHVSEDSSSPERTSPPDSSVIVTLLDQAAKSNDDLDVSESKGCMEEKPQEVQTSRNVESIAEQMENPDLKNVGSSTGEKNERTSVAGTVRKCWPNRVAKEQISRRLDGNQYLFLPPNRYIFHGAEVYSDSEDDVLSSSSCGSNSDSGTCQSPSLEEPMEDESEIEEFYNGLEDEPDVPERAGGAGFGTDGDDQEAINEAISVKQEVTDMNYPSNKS
Experiment: SIRT1 inhibitor screen (mobility shift assay, p53 substrate)
Assay type: biochemical
Settings: 2 ng/μl SIRT1, 3 μM p53 substrate; for percent inhibition of SIRT1 at 5 μM / inhibition at 5 µM: 5 μM compound; for percent inhibition of SIRT1 at 50 μM / inhibition at 50 µM: 50 μM compound; for inhibition at 5 µM: read-out: percent inhibition of SIRT1 at 5 μM; for inhibition at 50 µM: read-out: percent inhibition of SIRT1 at 50 μM
Method: The NatProd Collection library (MicroSource Discovery Systems, Inc. Gaylordsville, Conn.) in ten source plates was screened at two doses (50 μM and 5 μM final in the reaction mixture, duplicate for each dose). The inhibitory activity of the compounds was assessed against 2 ng/μ1 purified human SIRT1 using 3 μM p53 as a substrate. The assay was a mobility shift assay based on charge differences before and after electrophoretic separation of product from fluorescently labeled substrate read using a Caliper EZ Reader (Perkin Elmer, Boston, Mass.). All reactions took place in the presence of excess nicotinamide adenine dinucleotide and the known SIRT1 inhibitor suramin was used as a control.

**Q.** `O=C(O[C@@H]1Cc2c(O)cc(O)cc2O[C@@H]1c1cc(O)c(O)c(O)c1)c1cc(O)c(O)c(O)c1` [Epigallocatechin-3-monogallate] was tested. Which “percent inhibition of SIRT1 at 5 μM” value did it give?
**A.** Its value is 72.

**Q.** What about the “percent inhibition of SIRT1 at 50 μM” value of the same compound?
**A.** The value was 99.

**Q.** With `O=C(O[C@@H]1Cc2c(O)cc(O)cc2O[C@@H]1c1ccc(O)c(O)c1)c1cc(O)c(O)c(O)c1` [Epicatechin monogallate] as the compound, how does the “percent inhibition of SIRT1 at 5 μM” value read?
**A.** Its value is 66.

**Q.** What about the “percent inhibition of SIRT1 at 50 μM” value of the same compound?
**A.** The value was 99.

**Q.** With `Cc1c(O)c(O)cc2c1CC=C1[C@@]2(C)CC[C@@]2(C)[C@@H]3C[C@](C)(C(=O)O)CC[C@]3(C)CC[C@]12C` [Dihydrocelastrol] as the compound, how does the inhibition at 5 µM read?
**A.** The inhibition at 5 µM was 84%.

**Q.** And the inhibition at 50 µM?
**A.** The inhibition at 50 µM was 99%.

**Q.** What does the source list for `CC1=C(O)C(=O)C=C2C1=CC=C1[C@@]2(C)CC[C@@]2(C)[C@@H]3C[C@](C)(C(=O)O)CC[C@]3(C)CC[C@]12C` [Celastrol]?
**A.** inhibition at 5 µM: 101%; inhibition at 50 µM: 100%
